Molecules are shown by their SMILES.

Broadly, the melting point is the temperature of the solid-liquid transition. On to `COc1cccc(COC(=O)N2CCc3[nH]cnc3C2)c1.O=C(O)C(=O)O` [Example 19, 4,5,6,7-Tetrahydroimidazo[4,5-c]pyridine-5-carboxylic Acid 3-methoxybenzyl Ester Oxalate], for which the melting point is 163 to 165 °C.

The molecule `O=C(O)C(=O)O.O=C(OCC1CCCCC1)N1CCc2nc[nH]c2C1` [Example 41, 4,5,6,7-Tetrahydroimidazo[4,5-c]pyridine-5-carboxylic Acid Cyclohexylmethyl Ester Oxalate] gave a melting point of 176 to 178 °C.

In turn, `O=C(O)C(=O)O.O=C(OCCC1CCCCC1)N1CCc2nc[nH]c2C1` [Example 40, 4,5,6,7-Tetrahydroimidazo[4,5-c]pyridine-5-carboxylic Acid 2-cyclohexylethyl Ester Oxalate] returned a melting point of 174 to 176 °C.

On to `O=C(O)C(=O)O.O=C(OCc1ccccc1Cl)N1CCc2nc[nH]c2C1` [Example 42, 4,5,6,7-Tetrahydroimidazo[4,5-c]pyridine-5-carboxylic Acid 2-chlorobenzyl Ester Oxalate], for which the melting point was 173 to 175 °C.

With `Cc1cccc(CCOC(=O)N2CCc3[nH]cnc3C2)c1.O=C(O)C(=O)O` [Example 24, 4,5,6,7-Tetrahydroimidazo[4,5-c]pyridine-5-carboxylic Acid 2-(3-methylphenyl)ethyl Ester Oxalate], the melting point was 155 to 157 °C.

In the case of `O=C(O)C(=O)O.O=C(OCCc1cccs1)N1CCc2nc[nH]c2C1` [Example 36, 4,5,6,7-Tetrahydroimidazo[4,5-c]pyridine-5-carboxylic Acid 2-thiophen-2-ylethyl Ester Oxalate], the melting point was in the range of 173 to 175 °C.

`CCc1ccc(COC(=O)N2CCc3nc[nH]c3C2)cc1.O=C(O)C(=O)O` [Example 34, 4,5,6,7-Tetrahydroimidazo[4,5-c]pyridine-5-carboxylic Acid 4-ethylbenzyl Ester Oxalate] registered a melting point of 171 to 173 °C.

The molecule `Cc1ccc(COC(=O)N2CCc3[nH]cnc3C2)c(C)c1.O=C(O)C(=O)O` [Example 28, 4,5,6,7-Tetrahydroimidazo[4,5-c]pyridine-5-carboxylic Acid 2,4-dimethylbenzyl Ester Oxalate] displayed a melting point of 176 to 178 °C.

As for `CC(C)c1ccc(COC(=O)N2CCc3nc[nH]c3C2)cc1.O=C(O)C(=O)O` [Example 31, 4,5,6,7-Tetrahydroimidazo[4,5-c]pyridine-5-carboxylic Acid 4-isopropylbenzyl Ester Oxalate], the melting point was in the range of 166 to 168 °C.

The molecule `O=C(O)C(=O)O.O=C(OCCc1ccsc1)N1CCc2nc[nH]c2C1` [Example 37, 4,5,6,7-Tetrahydroimidazo[4,5-c]pyridine-5-carboxylic Acid 2-thiophen-3-ylethyl Ester Oxalate] came in with a melting point of 193 to 194 °C.

As to `Cc1cccc(COC(=O)N2CCc3[nH]cnc3C2)c1.O=C(O)C(=O)O` [Example 21, 4,5,6,7-Tetrahydroimidazo[4,5-c]pyridine-5-carboxylic Acid 3-methylbenzyl Ester Oxalate], the melting point lay in the range of 169 to 171 °C.

Values taken from patent US6908926B1, “Substituted imidazoles, their preparation and use” (Novo Nordisk A/S, priority 1999, dated 2005).
